Source: patent US7906522B2, “2-aminoquinazoline derivatives” (Kyowa Hakko Kirin Co., Ltd, priority 2005, dated 2011)

Molecular target: T1, Activated human p38α (Homo sapiens, UniProt Q16539)
T1 construct: purchased Upstate Biotechnology Inc. 14-251
Test: p38MAP kinase inhibition test
Format: biochemical
Details: at a concentration of 1 μmol/L; substrate myelin basic protein, ATP 20 μmol/L, [γ-32P]ATP; read-out: enzyme inhibitory activity
Protocol: p38MAP Kinase Inhibition Test
Activated human p38α was purchased from Upstate Biotechnology Inc. (Catalog No. 14-251). P38MAP kinase inhibitory activity was measured by the procedure described below with reference to the method by Whitmarsh A. J. and Davis R. J. [Methods in Enzymology (Method. Enzymol.), vol. 332, p. 319-336 (2001)]. As the substrate to be phosphorylated, a myelin basic protein (Catalog No. 133-13493, Wako Pure Chemical Industries, Ltd.) (20 μg/assay) was used. The reaction was carried out in a solution containing 3-[N-Morpholino]propanesulfonic acid (MOPS) (20 mmol/L, pH 7.2), β-glycerophosphoric acid (Sigma Corp.) (25 mmol/L), ethylenebis(oxyethylenenitrilo)tetraacetic acid (EGTA) (1 mmol/L), […] (Sigma-Aldrich Corp.) (1 mmol/L), dithiothreitol (DTT, Wako Pure Chemical Industries, Ltd.) (1 mmol/L), adenosine 5′-triphosphate (ATP, Sigma Corp.) (20 μmol/L), and MgCl2 (18.75 mmol/L) (total 40 μL/assay). The reaction was started by adding human p38α and [γ-^32P]ATP (1 μCi/assay), and incubation was performed at 30° C. for 15 minutes. The reaction was terminated by adding 4.5% v/v phosphoric acid (10 μL/well). Then, 45 μL of the reaction mixture was adsorbed onto phosphocellulose paper (p81 paper, Code No. 3698023, Whatman International, Maidstone, UK). The phosphocellulose paper was washed with 0.75% v/v phosphoric acid. Then, the radioactivity of the phosphorylated myelin basic protein ([^32P]) remaining on the phosphocellulose paper was measured with a scintillation counter (TRI-CARB2700TR, PerkinElmer, Boston, Mass., USA) using program No. 27 (data mode: cpm, measurement time: 1 min, Background substract: none, energy range measured: LL 0.0-UL 2000) or a scintillation counter (LS6500, BeckmanCoulter, Fullerton, Calif., USA) using program No. 17 (data mode: cpm, measurement time: 1 min, Background substract: none, energy range measured: high). The test compound was dissolved in DMSO before addition.

T1 sequence (Q16539 whole entry): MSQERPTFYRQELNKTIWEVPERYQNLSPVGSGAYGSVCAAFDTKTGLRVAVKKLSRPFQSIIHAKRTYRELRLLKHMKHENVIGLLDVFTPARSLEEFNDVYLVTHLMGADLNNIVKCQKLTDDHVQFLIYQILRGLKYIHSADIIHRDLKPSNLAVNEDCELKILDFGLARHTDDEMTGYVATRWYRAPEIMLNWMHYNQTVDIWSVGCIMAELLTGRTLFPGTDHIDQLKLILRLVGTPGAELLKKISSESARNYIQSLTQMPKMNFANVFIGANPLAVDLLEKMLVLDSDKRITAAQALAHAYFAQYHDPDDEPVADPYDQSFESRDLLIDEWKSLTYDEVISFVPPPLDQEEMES

Row | SMILES | inhibition at 1 µM [%]
1 | COc1cc2nc(NC(C)C)ncc2cc1-c1ccc(F)cc1F [Compound 3, 6-(2,4-Difluorophenyl)-2-isopropylamino-7-methoxyquinazoline] | ≥ 50
2 | COc1cc2nc(NC(C)C)ncc2cc1-c1ccccc1Cl [Compound 4, 6-(2-Chlorophenyl)-2-isopropylamino-7-methoxyquinazoline] | ≥ 50
3 | COc1cc2nc(N[C@H]3CC[C@H](N)CC3)ncc2cc1-c1ccccc1Cl [Compound 5, 2-(trans-4-Aminocyclohexylamino)-6-(2-chlorophenyl)-7-methoxyquinazoline] | ≥ 50
4 | COc1cc2nc(NC3CCCC3)ncc2cc1-c1ccccc1Cl [Compound 6, 6-(2-Chlorophenyl)-2-(cyclopentylamino)-7-methoxyquinazoline] | ≥ 50
5 | COc1cc2nc(N[C@H](C)C(C)(C)O)ncc2cc1-c1ccccc1Cl [Compound 7, (R)-6-(2-Chlorophenyl)-2-(2-hydroxy-1,2-dimethylpropylamino)-7-methoxyquinazoline] | ≥ 50
6 | COc1cc2nc(N[C@H](C)c3ccccc3)ncc2cc1-c1ccccc1Cl [Compound 8, (R)-6-(2-Chlorophenyl)-7-methoxy-2-[(1-phenylethyl)amino]quinazoline] | ≥ 50
7 | COc1cc2nc(N[C@@H](C)c3ccccc3)ncc2cc1-c1ccccc1Cl [Compound 9, (S)-6-(2-Chlorophenyl)-7-methoxy-2-[(1-phenylethyl)amino]quinazoline] | ≥ 50
8 | COc1cc2nc(N[C@H]3CC[C@H](O)CC3)ncc2cc1-c1ccccc1Cl [Compound 10, 6-(2-Chlorophenyl)-2-(trans-4-hydroxycyclohexylamino)-7-methoxyquinazoline] | ≥ 50
9 | COc1cc2nc(NC3CCOCC3)ncc2cc1-c1ccccc1Cl [Compound 11, 6-(2-Chlorophenyl)-7-methoxy-2-(4-tetrahydropyranylamino)quinazoline] | ≥ 50
10 | COc1cc2nc(NC3CCN(S(C)(=O)=O)CC3)ncc2cc1-c1ccccc1Cl [Compound 12, 6-(2-Chlorophenyl)-2-[1-(methylsulfonyl)piperidin-4-ylamino]-7-methoxyquinazoline] | ≥ 50
11 | COc1cc2nc(NC3CCN(S(=O)(=O)C(F)(F)F)CC3)ncc2cc1-c1ccccc1Cl [Compound 13, 6-(2-Chlorophenyl)-7-methoxy-2-[1-(trifluoromethylsulfonyl)piperidin-4-ylamino]quinazoline] | ≥ 50
12 | COc1cc2nc(NC3CCN(S(=O)(=O)CC(F)(F)F)CC3)ncc2cc1-c1ccccc1Cl [Compound 14, 6-(2-Chlorophenyl)-7-methoxy-2-[1-(2,2,2-trifluoroethylsulfonyl)piperidin-4-ylamino]quinazoline] | ≥ 50
13 | COc1cc2nc(NC3CCN(C(N)=O)CC3)ncc2cc1-c1ccccc1Cl [Compound 15, 2-(1-Carbamoylpiperidin-4-ylamino)-6-(2-chlorophenyl)-7-methoxyquinazoline] | ≥ 50
14 | COc1cc2nc(Nc3c(F)cccc3F)ncc2cc1-c1ccccc1Cl [Compound 16, 6-(2-Chlorophenyl)-2-(2,6-difluoroanilino)-7-methoxyquinazoline] | ≥ 50
15 | COc1cc2nc(Nc3c(Cl)cccc3Cl)ncc2cc1-c1ccccc1Cl [Compound 17, 6-(2-Chlorophenyl)-2-(2,6-dichloroanilino)-7-methoxyquinazoline] | ≥ 50
16 | CC(C)Nc1ncc2cc(-c3ccccc3Cl)c(O)cc2n1 [Compound 19, 6-(2-Chlorophenyl)-7-hydroxy-2-isopropylaminoquinazoline] | ≥ 50
17 | CC(C)Nc1ncc2cc(-c3ccccc3Cl)c(OC(=O)c3ccccc3)cc2n1 [Compound 20, 7-Benzoyloxy-6-(2-chlorophenyl)-2-isopropylaminoquinazoline] | ≥ 50
18 | CC(C)Nc1ncc2cc(-c3ccccc3Cl)c(OCC#N)cc2n1 [Compound 21, 6-(2-Chlorophenyl)-7-cyanomethyloxy-2-isopropylaminoquinazoline] | ≥ 50
19 | CC(=O)OCCOc1cc2nc(NC(C)C)ncc2cc1-c1ccccc1Cl [Compound 22, 7-(2-Acetyloxyethyloxy)-6-(2-chlorophenyl)-2-isopropylaminoquinazoline] | ≥ 50
20 | CC(C)Nc1ncc2cc(-c3ccccc3Cl)c(OCCO)cc2n1 [Compound 23, 6-(2-Chlorophenyl)-7-(2-hydroxyethyloxy)-2-isopropylaminoquinazoline] | ≥ 50
21 | CC(C)Nc1ncc2cc(-c3ccccc3Cl)c(OCC(=O)N3CCN(C)CC3)cc2n1 [Compound 40, 6-(2-Chlorophenyl)-2-isopropylamino-7-[(4-methylpiperazin-1-ylcarbonyl)methyloxy]quinazoline] | ≥ 50

The remaining lines, values ahead:

Row | inhibition at 1 µM [%] | SMILES
22 | ≥ 50 | CC(C)Nc1ncc2cc(-c3ccccc3Cl)c(OCCCO)cc2n1 [Compound 24, 6-(2-Chlorophenyl)-7-(3-hydroxypropyloxy)-2-isopropylaminoquinazoline]
23 | ≥ 50 | CC(C)Nc1ncc2cc(-c3ccccc3Cl)c(OCCCCO)cc2n1 [Compound 25, 6-(2-Chlorophenyl)-7-(4-hydroxybutyloxy)-2-isopropylaminoquinazoline]
24 | ≥ 50 | COCOc1cc2nc(NC(C)C)ncc2cc1-c1ccccc1Cl [Compound 26, 6-(2-Chlorophenyl)-2-isopropylamino-7-methoxymethyloxyquinazoline]
25 | ≥ 50 | CC(C)Nc1ncc2cc(-c3ccccc3Cl)c(OCc3ccccc3)cc2n1 [Compound 27, 7-Benzyloxy-6-(2-chlorophenyl)-2-isopropylaminoquinazoline]
26 | ≥ 50 | CC(C)Nc1ncc2cc(-c3ccccc3Cl)c(OCc3ccc(C(=O)O)cc3)cc2n1 [Compound 28, 7-(4-Carboxyphenylmethyloxy)-6-(2-chlorophenyl)-2-isopropylaminoquinazoline]
27 | ≥ 50 | CC(C)Nc1ncc2cc(-c3ccccc3Cl)c(OCc3cccc(C(=O)O)c3)cc2n1 [Compound 29, 7-(3-Carboxyphenylmethyloxy)-6-(2-chlorophenyl)-2-isopropylaminoquinazoline]
28 | ≥ 50 | CC(C)Nc1ncc2cc(-c3ccccc3Cl)c(OCCC(=O)O)cc2n1 [Compound 30, 7-(2-Carboxyethyloxy)-6-(2-chlorophenyl)-2-isopropylaminoquinazoline]
29 | ≥ 50 | CC(C)Nc1ncc2cc(-c3ccccc3Cl)c(OCCCC(=O)O)cc2n1 [Compound 31, 7-(3-Carboxypropyloxy)-6-(2-chlorophenyl)-2-isopropylaminoquinazoline]
30 | ≥ 50 | CCOC(=O)COc1cc2nc(NC(C)C)ncc2cc1-c1ccccc1Cl [Compound 32, 6-(2-Chlorophenyl)-7-(ethoxycarbonylmethyloxy)-2-isopropylaminoquinazoline]
31 | ≥ 50 | CC(C)Nc1ncc2cc(-c3ccccc3Cl)c(OCC(=O)O)cc2n1 [Compound 33, 7-(Carboxymethyloxy)-6-(2-chlorophenyl)-2-isopropylaminoquinazoline]
32 | ≥ 50 | CC(C)Nc1ncc2cc(-c3ccccc3Cl)c(OCC(C)(C)O)cc2n1 [Compound 34, 6-(2-Chlorophenyl)-7-(2-hydroxy-2-methylpropyloxy)-2-isopropylaminoquinazoline]
33 | ≥ 50 | CC(C)Nc1ncc2cc(-c3ccccc3Cl)c(OCC(N)=O)cc2n1 [Compound 35, 7-(Carbamoylmethyloxy)-6-(2-chlorophenyl)-2-isopropylaminoquinazoline]
34 | ≥ 50 | CC(C)Nc1ncc2cc(-c3ccccc3Cl)c(OCC(=O)N(C)C)cc2n1 [Compound 37, 6-(2-Chlorophenyl)-7-(N,N-dimethylcarbamoylmethyloxy)-2-isopropylaminoquinazoline]
35 | ≥ 50 | CC(C)Nc1ncc2cc(-c3ccccc3Cl)c(OCC(=O)N3CCCCC3)cc2n1 [Compound 38, 6-(2-Chlorophenyl)-2-isopropylamino-7-[(piperidinocarbonyl)methyloxy]quinazoline]
36 | ≥ 50 | CC(C)Nc1ncc2cc(-c3ccccc3Cl)c(OCC(=O)N3CCOCC3)cc2n1 [Compound 39, 6-(2-Chlorophenyl)-2-isopropylamino-7-[(morpholinocarbonyl)methyloxy]quinazoline]
37 | ≥ 50 | CC(C)Nc1ncc2cc(-c3ccccc3Cl)c(-c3ccc(C(=O)O)cc3)cc2n1 [Compound 41, 7-(4-Carboxyphenyl)-6-(2-chlorophenyl)-2-isopropylaminoquinazoline]
38 | ≥ 50 | CC(C)Nc1ncc2cc(-c3ccccc3Cl)c(-c3cccc(C(=O)O)c3)cc2n1 [Compound 42, 7-(3-Carboxyphenyl)-6-(2-chlorophenyl)-2-isopropylaminoquinazoline]
